In ChEMBL document CHEMBL3217574, “Discovery of CP-866,087, a mu opioid receptor antagonist for the treatment of alcohol abuse and dependence” (Medchemcomm, 2011):

Legend:
human MDR1 (P-gp) = experiment: Efflux ratio of apparent permeability from basolateral to apical side over apical to basolateral side in MDCK cells transfected with human MDR1; format: ADME, cell-based, Canis lupus familiaris; conditions: dog
[1] = molecular target: Voltage-gated inwardly rectifying potassium channel KCNH2 (Homo sapiens, UniProt Q12809); experiment: Inhibition of human ERG by [3H]dofetilide binding assay
[2] = Intrinsic clearance in human liver microsomes; format: ADME; conditions: read-out: CLH
CYP2D6 = CYP2D6 (Homo sapiens, UniProt P10635); experiment: Inhibition of CYP2D6 (unknown origin) at 3 uM after 8 mins; format: ADME
[3] = molecular target: Kappa-type opioid receptor (Homo sapiens, UniProt P41145); experiment: Displacement of [3H]diprenorphine from human kappa opioid receptor expressed in cells after 1 hr by liquid scintillation counting analysis; format: cell-based
Mu-type opioid receptor [4] = molecular target: T1, Mu-type opioid receptor (Homo sapiens, UniProt P35372); experiment: Antagonist activity at human mu opioid receptor expressed in CHO cells assessed as [35S]-GTPgammaS binding after 1 hr by liquid scintillation counting analysis; format: functional, cell-based
Mu-type opioid receptor [5] = molecular target: T1, Mu-type opioid receptor; experiment: Displacement of [3H]diprenorphine from human mu opioid receptor expressed in cells after 1 hr by liquid scintillation counting analysis; format: cell-based
Homo sapiens [6] = species on record: Homo sapiens; experiment: Ratio of ki for human mu opioid receptor to human kappa opioid receptor
Homo sapiens [7] = species on record: Homo sapiens; experiment: Ratio of Ki for human mu opioid receptor to Ki for human delta opioid receptor
[8] = molecular target: Delta-type opioid receptor (Homo sapiens, UniProt P41143); experiment: Displacement of [3H]diprenorphine from human delta opioid receptor expressed in cells after 1 hr by liquid scintillation counting analysis; format: cell-based
Rattus norvegicus [9] = experiment: Reduction in alcohol intake in alcohol-preferring rat at 3 mg/kg, sc after 30 mins; format: functional; conditions: 0.5 h, route subcutaneous
hERG (KCNH2) = hERG (KCNH2) (Homo sapiens, UniProt Q12809); experiment: Inhibition of human ERG
[10] = Inhibition of IC20 for human ERG over plasma efficacious concentration; format: functional
Rattus norvegicus [11] = experiment: Antagonist activity against morphine-induced antinociception in sc dosed rat assessed as reversal of latency increase; format: functional
[12] = Fraction unbound in rat at 1 mg/kg, sc at 0.75 hrs time-point; format: ADME, organism-based; design: dose 1 mg/kg, route subcutaneous; conditions: plasma
[13] = Ratio of drug level in rat brain to plasma at 1 mg/kg, sc at 0.75 hrs time-point; format: ADME, organism-based; design: dose 1 mg/kg, route subcutaneous; conditions: read-out: BPR
[14] = Clearance in rat; format: ADME, organism-based; conditions: in vivo
[15] = Volume of distribution in rat; format: ADME, organism-based; conditions: in vivo
Rattus norvegicus [16] = experiment: Reduction in alcohol intake in sc dosed alcohol-preferring rat after 30 mins; format: functional, organism-based
[17] = Drug level in rat cerebrospinal fluid at 1 mg/kg, sc at 0.75 hrs time-point; format: ADME, organism-based; design: dose 1 mg/kg, route subcutaneous; conditions: read-out: Drug uptake
[18] = Half life in rat; format: ADME, organism-based; conditions: in vivo
Rattus norvegicus [19] = experiment: Reduction in alcohol intake in alcohol-preferring rat at 5.6 mg/kg, sc after 30 mins; format: functional; conditions: 0.5 h, route subcutaneous
[20] = Total plasma concentration in rat at 1 mg/kg, sc at 0.75 hrs time-point; format: ADME, organism-based; design: dose 1 mg/kg, route subcutaneous
Rattus norvegicus [21] = experiment: Reduction in alcohol intake in alcohol-preferring rat at 1 mg/kg, sc after 30 mins; format: functional; conditions: 0.5 h, route subcutaneous

T1 sequence (P35372 whole entry): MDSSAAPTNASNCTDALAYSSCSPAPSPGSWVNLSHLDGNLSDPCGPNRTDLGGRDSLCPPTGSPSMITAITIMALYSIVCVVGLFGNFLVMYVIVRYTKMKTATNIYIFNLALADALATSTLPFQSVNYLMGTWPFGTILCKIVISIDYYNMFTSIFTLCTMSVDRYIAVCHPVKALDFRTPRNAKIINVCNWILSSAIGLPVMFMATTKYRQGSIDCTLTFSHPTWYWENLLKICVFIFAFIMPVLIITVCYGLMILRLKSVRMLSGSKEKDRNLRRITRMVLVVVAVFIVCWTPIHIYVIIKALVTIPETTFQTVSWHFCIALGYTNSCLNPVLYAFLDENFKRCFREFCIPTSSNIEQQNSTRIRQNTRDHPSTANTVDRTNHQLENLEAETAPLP
Chain of Kappa-type opioid receptor (P41145 whole entry): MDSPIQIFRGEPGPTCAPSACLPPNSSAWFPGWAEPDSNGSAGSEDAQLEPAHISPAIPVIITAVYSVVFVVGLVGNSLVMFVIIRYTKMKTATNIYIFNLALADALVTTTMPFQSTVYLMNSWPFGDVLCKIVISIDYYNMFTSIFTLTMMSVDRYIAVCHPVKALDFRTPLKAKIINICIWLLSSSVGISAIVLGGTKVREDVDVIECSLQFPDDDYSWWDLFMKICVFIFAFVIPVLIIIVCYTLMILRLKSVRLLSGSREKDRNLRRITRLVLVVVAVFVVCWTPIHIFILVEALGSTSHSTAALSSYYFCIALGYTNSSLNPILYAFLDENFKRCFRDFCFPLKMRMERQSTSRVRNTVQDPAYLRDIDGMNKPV
Chain of Voltage-gated inwardly rectifying potassium channel KCNH2 (Q12809 whole entry): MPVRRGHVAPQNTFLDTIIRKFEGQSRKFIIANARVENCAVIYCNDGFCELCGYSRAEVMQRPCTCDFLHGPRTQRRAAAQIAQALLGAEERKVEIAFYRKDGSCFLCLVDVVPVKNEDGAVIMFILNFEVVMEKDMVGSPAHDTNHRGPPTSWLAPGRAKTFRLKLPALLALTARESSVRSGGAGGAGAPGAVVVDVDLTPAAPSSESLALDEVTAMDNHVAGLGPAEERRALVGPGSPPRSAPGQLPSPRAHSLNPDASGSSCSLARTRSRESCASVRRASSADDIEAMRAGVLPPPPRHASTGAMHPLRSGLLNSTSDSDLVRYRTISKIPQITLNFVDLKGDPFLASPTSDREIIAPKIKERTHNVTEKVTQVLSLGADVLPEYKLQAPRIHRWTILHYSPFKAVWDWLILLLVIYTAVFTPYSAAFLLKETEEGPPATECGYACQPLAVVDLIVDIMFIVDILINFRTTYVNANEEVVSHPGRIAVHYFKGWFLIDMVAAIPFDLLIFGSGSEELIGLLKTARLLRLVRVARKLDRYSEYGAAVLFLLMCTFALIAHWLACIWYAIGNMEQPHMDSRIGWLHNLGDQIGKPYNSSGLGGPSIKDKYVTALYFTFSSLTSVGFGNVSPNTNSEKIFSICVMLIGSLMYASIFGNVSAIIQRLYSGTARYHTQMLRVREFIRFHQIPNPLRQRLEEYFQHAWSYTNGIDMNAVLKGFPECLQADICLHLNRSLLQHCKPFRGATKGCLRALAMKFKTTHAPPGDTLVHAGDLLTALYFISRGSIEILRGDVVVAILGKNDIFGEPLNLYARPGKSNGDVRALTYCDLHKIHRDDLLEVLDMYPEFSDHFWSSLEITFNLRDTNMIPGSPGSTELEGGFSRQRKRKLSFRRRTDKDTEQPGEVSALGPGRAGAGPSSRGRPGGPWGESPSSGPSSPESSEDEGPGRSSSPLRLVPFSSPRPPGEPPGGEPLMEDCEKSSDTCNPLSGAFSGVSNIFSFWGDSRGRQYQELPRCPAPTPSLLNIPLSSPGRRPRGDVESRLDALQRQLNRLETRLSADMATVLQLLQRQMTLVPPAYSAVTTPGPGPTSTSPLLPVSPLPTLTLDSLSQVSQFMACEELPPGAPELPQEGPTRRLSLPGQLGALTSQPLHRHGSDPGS
Chain of CYP2D6 (P10635 whole entry): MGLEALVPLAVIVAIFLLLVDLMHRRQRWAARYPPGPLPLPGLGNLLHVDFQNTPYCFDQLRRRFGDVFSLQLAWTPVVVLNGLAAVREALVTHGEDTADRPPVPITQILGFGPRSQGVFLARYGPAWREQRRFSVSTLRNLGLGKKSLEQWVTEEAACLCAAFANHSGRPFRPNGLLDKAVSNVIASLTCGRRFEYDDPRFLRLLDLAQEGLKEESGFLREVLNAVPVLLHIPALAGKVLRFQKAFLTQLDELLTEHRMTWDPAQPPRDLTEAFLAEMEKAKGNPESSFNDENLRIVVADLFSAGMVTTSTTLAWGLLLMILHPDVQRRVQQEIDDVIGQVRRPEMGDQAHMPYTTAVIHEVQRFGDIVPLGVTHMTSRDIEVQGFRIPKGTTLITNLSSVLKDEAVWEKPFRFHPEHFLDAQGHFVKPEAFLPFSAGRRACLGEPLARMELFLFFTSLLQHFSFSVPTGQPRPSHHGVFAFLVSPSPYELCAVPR
Chain of Delta-type opioid receptor (P41143 whole entry): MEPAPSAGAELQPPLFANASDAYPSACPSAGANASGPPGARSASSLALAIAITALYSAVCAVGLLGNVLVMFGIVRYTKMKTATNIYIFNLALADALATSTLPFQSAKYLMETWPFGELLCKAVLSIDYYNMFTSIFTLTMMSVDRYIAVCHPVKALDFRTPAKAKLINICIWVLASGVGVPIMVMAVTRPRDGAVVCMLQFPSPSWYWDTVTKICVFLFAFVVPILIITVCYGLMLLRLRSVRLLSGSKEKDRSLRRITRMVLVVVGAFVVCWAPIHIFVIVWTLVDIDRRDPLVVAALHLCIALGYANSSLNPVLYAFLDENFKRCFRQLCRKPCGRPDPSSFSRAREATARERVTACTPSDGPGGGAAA
Chain of hERG (KCNH2) (Q12809 whole entry): as the sequence (Q12809 whole entry) above

Row | Compound | efflux ratio (human MDR1 (P-gp)) | IC50 [1] | CLint scaled [2] | inhibition at 8 min, 3 µM (CYP2D6) | Ki [3] | Ki (Mu-type opioid receptor [4]) | Ki (Mu-type opioid receptor [5]) | Ratio Ki (Homo sapiens [6]) | Ratio Ki (Homo sapiens [7]) | Ki [8] | ED50 (Rattus norvegicus [11]) | other results
1 | CC[C@]1(c2cccc(NS(C)(=O)=O)c2)[C@@H]2CN(CC3Cc4ccccc4C3)C[C@@H]21 | 3.5 | 0.326 µM | 19 mL/min/kg | 35% |  |  |  |  |  |  |  | 
2 | CC[C@]1(c2cccc(C(N)=O)c2)[C@@H]2CN(CC3(O)Cc4ccccc4C3)C[C@@H]21 | 2.9 | 2.2 µM | 11 mL/min/kg | 17% | 0.06 µM | 0.00016 µM | 0.0035 µM | 17 | 31 | 0.108 µM |  | 
3 | O=C1CC[C@@]2(O)[C@H]3Cc4ccc(O)c5c4[C@@]2(CCN3CC2CC2)[C@H]1O5 [NALTREXONE] |  |  |  |  |  |  |  |  |  |  |  | inhibition in vivo at 3 mg/kg (Rattus norvegicus [9]): 21%
4 | CC[C@]1(c2cccc(NS(C)(=O)=O)c2)[C@@H]2CN(CCCC3(O)CCCCC3)C[C@@H]21 | 6.5 | 0.71 µM | 9 mL/min/kg | 14% | 0.016 µM | 0.00018 µM | 0.002 µM | 8 | 83 | 0.166 µM | 0.63 mg/kg | IC20 (hERG (KCNH2)): 0.32 µM; Ratio [10]: 15
5 | CC[C@]1(c2cccc(NS(C)(=O)=O)c2)[C@@H]2CN(CC3(O)Cc4ccccc4C3)C[C@@H]21 [CP-866087] |  |  | 12 mL/min/kg | 6% | 0.042 µM | 0.00028 µM | 0.001 µM |  |  | 0.17 µM | 0.1 mg/kg | fraction unbound at 0.75 h [12]: 0.034; Kp at 0.75 h [13]: 2; clearance [14]: 120 mL/min/kg; Vd [15]: 21.7 L/kg; inhibition (Rattus norvegicus [16]): Dose-dependent effect; concentration at 0.75 h [17]: 11.9 nM; half-life [18]: 11 h; inhibition in vivo at 5.6 mg/kg (Rattus norvegicus [19]): 42%; concentration at 0.75 h [20]: 338 nM; inhibition in vivo at 1 mg/kg (Rattus norvegicus [21]): 23%
